Source: US9539223B2, “Methods for treating bacterial infections” (Neoculi Pty Ltd., priority 2013, dated 2017)
≈ marks a conversion by molar mass, not a printed value. Where “and” joins values, the source holds several entries; their conditions need not be identical. Identical values can stand only once.

Tests used:
[1] = tested on: Staphylococcus spp. Strain MK1; assay: Checkerboard synergy study, Staphylococcus spp. MK1; format: cell-based; parameters: key to FIC1 (last-but-one column; FIC index of antibiotic + NCL812): FICI: <0.5 synergy, 0.5-4 no effect, >4 antagonism; conditions: Staphylococcus spp. Strain MK1
Experimental: (§1) Firstly, the MIC of each antibiotic alone was determined in accordance to CLSI standard guidelines.
(§2) According to the checkerboard guidelines, Synergy (S) was defined as an FICI<0.5. No effect (NE) was defined as 0.5<FICI<4. Antagonism (A) was defined as a 4<FICI.

[2] = tested on: S. aureus strain T3-29; assay: Checkerboard synergy study, S. aureus T3-29; format: cell-based, Staphylococcus aureus
Experimental: as §1, §2

[3] = tested on: S. pneumoniae; assay: MIC by micro-broth dilution, pneumococcal isolates; format: cell-based, Streptococcus pneumoniae
Experimental: (§3) [Micro-broth dilutions and 96-well trays are prepared by the following method: 90 μL of 4% LHB: CAMHB is aliquotted into all wells using a multichannel pipette. 90 μl of working antimicrobial stocks were no serial diluted down the tray by a 1:2 dilution. Negative broth controls and dilution control were taken into account when planning the set up of a 96-well tray.] 10 μL of bacterial suspension was then added to the appropriate wells in the 96 well tray. Appropriate positive (no antimicrobial), negative (no antimicrobial or bacteria) and negative dilution (a serial dilution control of antimicrobial and broth) controls were included in each assay. […] The MBC was determined by a 99.95% inhibition of S. pneumoniae, taking into account the dilution factor. MICs and MBCs were determined in quadruplicate and the mode was taken as the representative value. The MIC50, MIC90 and MIC range and MBC50, MBC90 and MBC range were determined according to CLSI standards. The MIC50 and MIC90, or MBC50 and MBC90, are defined by the lowest concentrations which, when all the MICs and MBCs of the isolates are arranged from lowest to highest, inhibited the 50th and 90th percentile of the total amount of isolates, respectively.

[4] = tested on: S. aureus ATCC 29213; assay: MIC assay (CLSI M07-A8) in Mueller Hinton II Broth; format: cell-based, Staphylococcus aureus; conditions: S. aureus ATCC 29213, quality control agent
Excerpt: The MIC assay method followed the procedure described by the Clinical and Laboratory Standards Institute, or CLSI (Clinical and Laboratory Standards Institute). […] The medium employed for the MIC assay was Mueller Hinton II Broth (MHB II—Becton Dickinson, Sparks, Md.; Cat No 212322; Lot 9044411). S. aureus ATCC 29213 served as the quality control strain, and linezolid was utilized as the quality control antibiotic to validate the assay.

[5] = tested on: S. aureus ATCC 29213; assay: ATP release assay (CellTiter-Glo); format: cell-based, Staphylococcus aureus; conditions: 8-fold the MIC (256 μg/ml), 30 min exposure
Excerpt: The CellTiter-Glo Luminescent Cell Viability Assay (Promega) was utilized to measure the leakage of ATP from bacteria. […] The negative control received 2% DMSO, which represented the final DMSO concentration in each assay. […] Results were expressed as ATP concentration released to the medium (μM).

[6] = tested on: methicillin-resistant and methicillin-susceptible Staphylococcus aureus; assay: MIC by broth microdilution (CLSI), S. aureus clinical isolates; format: cell-based; conditions: positive control
Experimental: Microtiter plates containing two-fold dilutions of each antimicrobial agent were inoculated with ˜10^5-CFU/ml of each isolate in a 100-μl final volume. Plates were incubated for 24-h at 37° C. Turbidity (absorbance at OD600) was measured using a Bio-Rad Benchmark Plus microplate spectrophotometer in Microplate Manager® version 5.2.1 (Bio-Rad). Minimum inhibitory concentration (MIC) endpoints were defined as the lowest antimicrobial concentration assessed by the spectrophotometer that inhibited bacterial growth. ATCC 49775 was included in the isolate collection as a control organism using breakpoints defined by the CLSI. The MIC50, MIC90 (concentrations that inhibited growth of the lower 50% and 90% of total organisms, respectively), and MIC range (minimum and maximum) were calculated to profile the antimicrobial susceptibility of the isolate collection.

[7] = tested on: methicillin-resistant Staphylococcus aureus (MRSA); assay: Minimum inhibitory concentration assay (CLSI), MRSA isolates; format: cell-based; conditions: ATCC control strains
Experimental: Minimum inhibitory concentration tests were performed according to CLSI Standards (CLSI 2008). […] The solutions were then serially diluted across the row, leaving 2 columns for positive and negative controls. A bacterial suspension was prepared by adding fresh colonies obtained from an overnight culture on Sheep Blood Agar (SBA) to a 9.1 g/L saline solution. This suspension was adjusted to a concentration of between 4×10^8 and 5×10^8 CFU/mL. Concentration of the suspension was determined by measuring optical density (OD) using a spectrophotometer at a wavelength of 600 nm where the correct concentration was determined to have an optical density of between 1.00 and 1.20. One milliliter of this suspension was added to 9 mL of saline before being added to all wells, excluding the negative control wells, in 10 μL volumes giving a final concentration of between 4×10^5 and 5×10^5 CFU/mL in each well. The tests were then incubated for 24 hours at 37° C. and then assessed both visually and using OD readings from a microplate reader at a wavelength of 600 nm. These tests were performed in duplicate but repeated if discrepancies were observed.
The minimum inhibitory concentration (MIC) was determined to be the lowest concentration of antibiotic that prevented growth of bacteria both visually and using OD readings.

[8] = tested on: S. pneumoniae; assay: MBC, pneumococcal isolates; format: cell-based, Streptococcus pneumoniae; conditions: isolate WCH16
Experimental: as §3

In the case of CC1(C)S[C@@H]2[C@H](NC(=O)Cc3ccccc3)C(=O)N2[C@H]1C(=O)O [Penicillin G, penicillin G], the “Antibiotic MIC Alone” value [1] was 0.125 µg/mL and 0.25 µg/mL, the “Antibiotic MIC With NCL812” value [1] was 0.062 µg/mL and 0.031 µg/mL and the “FIC1 (last-but-one column; FIC index of antibiotic + NCL812)” value [1] was 1 and 0.625. The “Result (interaction of antibiotic with NCL812)” value (“Result” below) [1] was “NE (No effect (NE) was defined as 0.5<FICI<4)”.
CC[C@H]1OC(=O)[C@H](C)[C@@H](O[C@H]2C[C@@](C)(OC)[C@@H](O)[C@H](C)O2)[C@H](C)[C@@H](O[C@@H]2O[C@H](C)C[C@H](N(C)C)[C@H]2O)[C@](C)(O)C[C@@H](C)C(=O)[C@H](C)[C@@H](O)[C@]1(C)O [Erythromycin, erythromycin] was tested, and the “Result” value [2] was “NE (No effect (NE) was defined as 0.5<FICI<4)” and the MIC ([3]; Streptococcus pneumoniae) was 0.00275 µg/mL (≈ 0.00375 µM).
In the case of CC(=O)NC[C@H]1CN(c2ccc(N3CCOCC3)c(F)c2)C(=O)O1 [Linezolid, linezolid], the “MIC against CLSI quality control range” value [4] was “within the CLSI-established quality control range”.
With Cc1cc(NS(=O)(=O)c2ccc(N)cc2)no1 [Sulfamethoxazole, sulfamethoxazole] the “Antibiotic MIC Alone” value [1] was 8 µg/mL, the “Antibiotic MIC With NCL812” value [1] was 4 µg/mL and the “FIC1 (last-but-one column; FIC index of antibiotic + NCL812)” value [1] was 0.75 and 1. The “FIC1 = MIC of antibiotic in combination with NCL812/MIC of antibiotic alone” value [1] was 0.5 and the “Result” value [1] was “NE (No effect (NE) was defined as 0.5<FICI<4)”.
In the case of polymyxin B [reference compound], the “maximal release of ATP” value [5] was “approximately 0.34 μM”.
In the case of CN(C)[C@@H]1C(O)=C(C(N)=O)C(=O)[C@@]2(O)C(O)=C3C(=O)c4c(O)cccc4[C@@](C)(O)[C@H]3C[C@@H]12 [Tetracycline, tetracycline], the “FIC1 (last-but-one column; FIC index of antibiotic + NCL812)” value [2] was 0.75 and 0.62 and the “Result” value [2] was “NE (No effect (NE) was defined as 0.5<FICI<4)”.
O=C(O)c1cn(C2CC2)c2cc(N3CCNCC3)c(F)cc2c1=O [Ciprofloxacin, ciprofloxacin] was tested, and the “Antibiotic MIC Alone” value [1] was 0.125 µg/mL and 0.25 µg/mL, the “FIC1 (last-but-one column; FIC index of antibiotic + NCL812)” value [1] was 0.75 and 0.525 and 0.625 and 0.562 and the “Result” value [1] was “NE (No effect (NE) was defined as 0.5<FICI<4)”.
With gentamicin the “Antibiotic MIC Alone” value [1] was 1 µg/mL and 0.5 µg/mL and the “Result” value [1] was “NE (No effect (NE) was defined as 0.5<FICI<4)”.
For CC1(C)S[C@@H]2[C@H](NC(=O)[C@H](N)c3ccccc3)C(=O)N2[C@H]1C(=O)O [Ampicillin], the “MIC values against CLSI guidelines” value [6] was “within the normal range expected”, the “Result” value [2] was “NE (No effect (NE) was defined as 0.5<FICI<4)” and the “MIC values against CLSI recommendations” value [7] was “within the normal range expected”. The MBC [8] was “Autolysis”, the “MIC Range” value ([3]; 20 S. pneumoniae strains) was 0.011 to 0.09 µg/mL and the MIC ([3]; Streptococcus pneumoniae) was 0.023 µg/mL (≈ 0.0658 µM). For the same compound, the MIC50 ([3]; Streptococcus pneumoniae) was 0.023 µg/mL (≈ 0.0658 µM), the MIC90 ([3]; Streptococcus pneumoniae) was 0.023 µg/mL (≈ 0.0658 µM) and the MIC ([3]; isolate EF3030) was 0.023. It also gave an MIC ([3]; isolate WCH184) of 0.045.
In the case of O=C(N[C@H](CO)[C@H](O)c1ccc([N+](=O)[O-])cc1)C(Cl)Cl [Chloramphenicol, chloramphenicol], the “FIC1 (last-but-one column; FIC index of antibiotic + NCL812)” value [2] was 0.75 and the “Result” value [2] was “NE (No effect (NE) was defined as 0.5<FICI<4)”.
